In PMC3646678, “Sodium-calcium exchangers in rat trigeminal ganglion neurons” (Molecular Pain, 2013) one finds IC50 data, which are given here for 3 compounds.

SMILES strings stand for the structures.

For this experiment, the system named is T1, NCX1 (Na+-Ca2+ exchanger).
T1 construct: gene Slc8a1
Nature of the experiment: fura-2 Ca2+ influx by reverse NCX activity (Li+ for Na+ substitution) in native rat TG neurons. Type of experiment: cell-based.
One may read the IC50 as the concentration needed to halve the response being measured. Low values mean inhibition by little substance, high ones a need for much substance. Compound `CCOC(=O)C1CSC(Cc2ccc(OCc3ccc([N+](=O)[O-])cc3)cc2)N1` (stereo not drawn) [SN-6] registered an IC50 of 510 nM. Take `CCOc1ccc(Oc2ccc(OCc3cc(F)ccc3F)cc2)c(N)c1` [SEA0400, 2-[4-[(2,5-difluorophenyl)methoxy]phenoxy]-5-ethoxyaniline]: half-maximal inhibition (IC50) required 30 nM. The compound `N=C(N)SCCc1ccc(OCc2ccc([N+](=O)[O-])cc2)cc1` [KB-R7943] registered an IC50 of 3080 nM.
